Measured values: article PMC7915026, “Sulfaguanidine Hybrid with Some New Pyridine-2-One Derivatives: Design, Synthesis, and Antimicrobial Activity against Multidrug-Resistant Bacteria as Dual DNA Gyrase and DHFR Inhibitors” (Antibiotics, 2021)
≈ marks a conversion by molar mass, not a printed value. Where two headings read alike, the source gives them in different places.

Tests used:
B. subtilis ATCC 6633 [1] = assay: Inhibition zone, paper disk/agar diffusion; type: cell-based; details: B. subtilis; Na = no activity
Description: (§1) The antimicrobial activity performed at the bacteriology laboratory, Botany and Microbiology Department, Faculty of Science, Al-Azhar University, Cairo, Egypt. The inhibition zone (IZ) of the tested derivatives expressed as the diameter (mm) according to the agar plate diffusion method.

[2] = test system: F. oxysporum (RCMB 008002); assay: Inhibition zone, paper disk/agar diffusion; type: cell-based; details: Na = no activity
Description: as §1

E. faecalis ATCC 29212 [3] = assay: Inhibition zone, paper disk/agar diffusion; type: cell-based; details: E. faecalis; Na = no activity
Description: as §1

P. aeruginosa ATCC 27853 [4] = assay: Inhibition zone, paper disk/agar diffusion; type: cell-based; details: P. aeruginosa; Na = no activity
Description: as §1

S. aureus ATCC 29213 [5] = assay: Inhibition zone, paper disk/agar diffusion; type: cell-based; details: S. aureus; Na = no activity
Description: as §1

E. coli ATCC 25922 [6] = assay: Inhibition zone, paper disk/agar diffusion; type: cell-based; details: E. coli; Na = no activity
Description: as §1

S. typhi ATCC 6539 = assay: Inhibition zone, paper disk/agar diffusion; type: cell-based; details: S. typhi; Na = no activity
Description: as §1

C. albicans (ATCC 10231) [7] = assay: Inhibition zone, paper disk/agar diffusion; type: cell-based; details: Na = no activity
Description: as §1

S. aureus ATCC 29213 [8] = assay: MIC and MBC determination; type: cell-based; details: Staphylococcus aureus, ATCC29213, S. aureus
C. albicans (ATCC 10231) [9] = assay: MIC and MFC determination; type: cell-based
B. subtilis ATCC 6633 [10] = assay: MIC and MBC determination; type: cell-based; details: Bacillus subtilis, ATCC6633, B. subtilis
S. aureus DNA gyrase = S. aureus DNA gyrase (Staphylococcus aureus, UniProt P0A0K8+P20831); assay: In vitro DNA gyrase supercoiling enzymatic assay; type: biochemical
P. aeruginosa ATCC 27853 [11] = assay: MIC and MBC determination; type: cell-based; details: Pseudomonas aeruginosa, ATCC27853, P. aeruginosa
[12] = test system: Salmonella typhi (S. typhi ATCC 6539); assay: microbe, parasite or virus in culture; type: cell-based; details: Salmonella enterica, Salmonella typhi
[13] = test system: P. aeruginosa ATCC BAA-2111; assay: Inhibition zone against multidrug-resistant bacteria; type: cell-based; details: MDRB P. aeruginosa ATCC BAA-2111
Description: (§2) Norfloxacin was used as a positive control for the multidrug resistance study.
as §1

S. aureus ATCC 33591 [14] = assay: as above; type: cell-based; details: MDRB S. aureus ATCC 33591
Description: as §2, §1

E. coli ATCC BAA-196 [15] = assay: as above; type: cell-based; details: MDRB E. coli ATCC BAA-196
Description: as §2, §1

S. aureus ATCC 43300 [16] = assay: as above; type: cell-based; details: MDRB S. aureus ATCC 43300
Description: as §2, §1

[17] = test system: P. aeruginosa ATCC BAA-2111; assay: MIC and MBC against multidrug-resistant strains; type: cell-based; details: P. aeruginosa ATCC BAA-2111
Description: as §2
(§3) The experiment was repeating for three-times.

S. aureus ATCC 33591 [18] = assay: MIC and MBC against multidrug-resistant strains; type: cell-based; details: Staphylococcus aureus, ATCC33591, S. aureus ATCC 33591
Description: as §2, §3

E. coli ATCC BAA-196 [19] = assay: MIC and MBC against multidrug-resistant strains; type: cell-based; details: E. coli ATCC BAA-196
Description: as §2, §3

S. aureus ATCC 43300 [20] = assay: MIC and MBC against multidrug-resistant strains; type: cell-based; details: Staphylococcus aureus, ATCC43300, S. aureus ATCC 43300
Description: as §2, §3

[21] = test system: F. oxysporum (RCMB 008002); assay: MIC and MFC determination; type: cell-based
E. faecalis ATCC 29212 [22] = assay: MIC and MBC determination; type: cell-based; details: Enterococcus faecalis, ATCC29212, E. faecalis
E. coli ATCC 25922 [23] = assay: MIC and MBC determination; type: cell-based; details: Escherichia coli, ATCC25922, E. coli
spleen and thymus = assay: In vivo immunomodulation: immune organ weight and indexes; details: mice
Description: Both the spleen and thymus have important antibacterial and fungal immune organ responses, and any change in weight, and indexes can reflect the level of immune regulation. Additionally, the relative spleen and thymus indexes are important indices for nonspecific immunity and potential immunomodulatory compounds that increase the spleen and thymus weight. This increase is due to immune cells’ stimulation in the spleen and thymus. […]

[24] = test system: CD4+ and CD8+ T lymphocytes; assay: In vivo T lymphocyte subsets from peripheral blood, flow cytometry; details: mice
Description: Activation of immune cells as CD4^+ and CD8^+ T cells is one possible mechanism of a drug’s immune stimulus activity. An increase in these cells is thought to be a good indicator of an active immune response to infections. So, our work extended to study the effect of the most promising derivatives (2d, 8, and 11) on T lymphocyte subsets (CD4^+ and CD8^+) from peripheral blood, and determined the relative level in model mice that analyzed by flow cytometry after the period of treating.
In vitro intracellular killing activities for the most promising six derivatives 2a, 2b, 2d, 3a, 8, and 11 were performed according to reported methods.

S. aureus DNA gyrase, sequence (P20831 whole entry): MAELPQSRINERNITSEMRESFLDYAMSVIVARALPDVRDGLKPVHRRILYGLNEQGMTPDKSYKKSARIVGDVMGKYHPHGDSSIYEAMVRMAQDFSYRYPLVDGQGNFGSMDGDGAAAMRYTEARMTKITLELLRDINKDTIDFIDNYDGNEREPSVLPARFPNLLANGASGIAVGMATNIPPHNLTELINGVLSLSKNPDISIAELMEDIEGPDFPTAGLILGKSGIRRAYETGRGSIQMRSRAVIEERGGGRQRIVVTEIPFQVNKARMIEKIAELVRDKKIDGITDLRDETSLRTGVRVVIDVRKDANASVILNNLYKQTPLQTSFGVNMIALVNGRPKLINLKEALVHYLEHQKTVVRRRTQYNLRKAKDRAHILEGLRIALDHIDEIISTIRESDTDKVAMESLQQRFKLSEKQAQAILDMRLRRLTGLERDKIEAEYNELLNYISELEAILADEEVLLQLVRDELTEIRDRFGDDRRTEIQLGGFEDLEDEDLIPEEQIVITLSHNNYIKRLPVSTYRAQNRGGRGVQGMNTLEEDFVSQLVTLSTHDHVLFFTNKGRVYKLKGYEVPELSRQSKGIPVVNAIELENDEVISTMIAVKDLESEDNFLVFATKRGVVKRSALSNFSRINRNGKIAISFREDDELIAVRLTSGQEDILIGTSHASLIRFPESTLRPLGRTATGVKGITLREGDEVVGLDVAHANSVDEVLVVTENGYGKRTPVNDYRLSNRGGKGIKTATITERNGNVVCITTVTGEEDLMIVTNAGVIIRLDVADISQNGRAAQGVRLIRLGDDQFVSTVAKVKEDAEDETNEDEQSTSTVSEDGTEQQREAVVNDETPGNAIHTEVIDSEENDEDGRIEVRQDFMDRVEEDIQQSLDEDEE
S. aureus DNA gyrase, sequence (P0A0K8 whole entry): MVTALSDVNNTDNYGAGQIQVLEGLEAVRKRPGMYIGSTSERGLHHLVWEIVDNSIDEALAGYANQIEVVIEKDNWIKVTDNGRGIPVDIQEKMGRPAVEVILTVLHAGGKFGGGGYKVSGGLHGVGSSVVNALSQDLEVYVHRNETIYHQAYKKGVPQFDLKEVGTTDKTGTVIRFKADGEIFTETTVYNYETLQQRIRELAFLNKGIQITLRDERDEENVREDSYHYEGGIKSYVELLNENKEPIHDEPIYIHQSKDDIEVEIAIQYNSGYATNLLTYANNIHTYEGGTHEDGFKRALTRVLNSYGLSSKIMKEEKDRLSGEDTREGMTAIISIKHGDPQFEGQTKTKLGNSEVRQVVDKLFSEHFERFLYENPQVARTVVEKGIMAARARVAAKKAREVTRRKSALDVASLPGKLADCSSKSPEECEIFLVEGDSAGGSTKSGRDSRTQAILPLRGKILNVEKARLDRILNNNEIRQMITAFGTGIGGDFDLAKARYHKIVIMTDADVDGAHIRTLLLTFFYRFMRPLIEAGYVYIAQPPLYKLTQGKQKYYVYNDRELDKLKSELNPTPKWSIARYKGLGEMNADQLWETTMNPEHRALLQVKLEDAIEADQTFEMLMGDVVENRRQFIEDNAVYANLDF

Compound: N#CCC(=O)Nc1ccc(S(=O)(=O)NC(=N)N)cc1 [Compound 1, N-(4-(N-Carbamimidoylsulfamoyl)phenyl)-2-cyanoacetamide]
- melting point: 172 to 174 °C
- Mean Diameter of the Inhibition Zone (B. subtilis ATCC 6633 [1]): 14 ± 0.70 mm
- Mean Diameter of the Inhibition Zone [2]: 13 ± 0.54 mm
- Mean Diameter of the Inhibition Zone (E. faecalis ATCC 29212 [3]): 19 ± 0.70 mm
- Mean Diameter of the Inhibition Zone (P. aeruginosa ATCC 27853 [4]): 20±0.65 mm
- Mean Diameter of the Inhibition Zone (S. aureus ATCC 29213 [5]): 17 ± 0.50 mm
- Mean Diameter of the Inhibition Zone (E. coli ATCC 25922 [6]): 16 ± 0.35 mm
- Mean Diameter of the Inhibition Zone (S. typhi ATCC 6539): 17 ± 0.54 mm
- Mean Diameter of the Inhibition Zone (C. albicans (ATCC 10231) [7]): 15 ± 0.63 mm

Compound: COc1ccc(/C=C(\C#N)C(=O)Nc2ccc(S(=O)(=O)NC(=N)N)cc2)cc1 [Compound 2b, N-(4-(N-Carbamimidoylsulfamoyl)phenyl)-2-cyano-3-(4-methoxyphenyl) acrylamide]
- MBC (S. aureus ATCC 29213 [8]; read-out: MBC): 78.2 ± 0.87 µM (≈ 31.2 µg/mL)
- MIC (S. aureus ATCC 29213 [8]; read-out: MIC): 39.1 ± 1.67 µM (≈ 15.6 µg/mL)
- MFC/MIC (C. albicans (ATCC 10231) [9]): <2
- MFC (C. albicans (ATCC 10231) [9]; Candida albicans, ATCC10231, read-out: MFC): 133 ± 1.65 µM (≈ 53.1 µg/mL)
- MIC (C. albicans (ATCC 10231) [9]; Candida albicans, ATCC10231, read-out: MIC): 78.2 ± 0.95 µM (≈ 31.2 µg/mL)
- MBC (B. subtilis ATCC 6633 [10]; read-out: MBC): 35.2 ± 1.25 µM (≈ 14 µg/mL)
- MIC (B. subtilis ATCC 6633 [10]; read-out: MIC): 19.6 ± 0.39 µM (≈ 7.81 µg/mL)
- IC50 (S. aureus DNA gyrase): 29.1 ± 1.93 µM
- MBC (P. aeruginosa ATCC 27853 [11]; read-out: MBC): 133 ± 1.02 µM (≈ 53.1 µg/mL)
- MIC (P. aeruginosa ATCC 27853 [11]; read-out: MIC): 78.2 ± 1.24 µM (≈ 31.2 µg/mL)
- MBC ([12]; read-out: MBC): 70.4 ± 0.85 µM (≈ 28.1 µg/mL)
- MIC ([12]; read-out: MIC): 39.1 ± 0.36 µM (≈ 15.6 µg/mL)
- Mean Diameter of Inhibition Zone [13]: 19 ± 0.16 mm
- Mean Diameter of Inhibition Zone (S. aureus ATCC 33591 [14]): 21 ± 0.11 mm
- Mean Diameter of Inhibition Zone (E. coli ATCC BAA-196 [15]): 22 ± 0.85 mm
- Mean Diameter of Inhibition Zone (S. aureus ATCC 43300 [16]): 20 ± 0.34 mm
- Mean Diameter of the Inhibition Zone (B. subtilis ATCC 6633 [1]): 25 ± 0.87 mm
- Mean Diameter of the Inhibition Zone [2]: 17 ± 0.50 mm
- Mean Diameter of the Inhibition Zone (E. faecalis ATCC 29212 [3]): 24 ± 0.35 mm
- Mean Diameter of the Inhibition Zone (P. aeruginosa ATCC 27853 [4]): 21 ± 0.55 mm
- Mean Diameter of the Inhibition Zone (S. aureus ATCC 29213 [5]): 21 ± 0.3 mm
- Mean Diameter of the Inhibition Zone (E. coli ATCC 25922 [6]): 23 ± 0.2 mm
- MBC [17]: 18.77 ± 0.87 µM (≈ 7.5 µg/mL)
- MIC [17]: 9.38 ± 0.47 µM (≈ 3.75 µg/mL)
- MBC ([17]; Pseudomonas aeruginosa, ATCCBAA2111, read-out: MBC): 18.8 µM (≈ 7.5 µg/mL)
- MIC ([17]; Pseudomonas aeruginosa, ATCCBAA2111, read-out: MIC): 9.38 µM (≈ 3.75 µg/mL)
- MBC (S. aureus ATCC 33591 [18]; read-out: MBC): 18.8 ± 0.21 µM (≈ 7.5 µg/mL)
- MIC (S. aureus ATCC 33591 [18]; read-out: MIC): 9.38 ± 0.35 µM (≈ 3.75 µg/mL)
- MBC (E. coli ATCC BAA-196 [19]): 9.38 ± 0.74 µM (≈ 3.75 µg/mL)
- MIC (E. coli ATCC BAA-196 [19]): 4.69 ± 0.45 µM (≈ 1.87 µg/mL)
- MBC (E. coli ATCC BAA-196 [19]; Escherichia coli, ATCCBAA196, read-out: MBC): 9.38 µM (≈ 3.75 µg/mL)
- MIC (E. coli ATCC BAA-196 [19]; Escherichia coli, ATCCBAA196, read-out: MIC): 4.69 µM (≈ 1.87 µg/mL)
- MBC (S. aureus ATCC 43300 [20]; read-out: MBC): 39.1 ± 0.54 µM (≈ 15.6 µg/mL)
- MIC (S. aureus ATCC 43300 [20]; read-out: MIC): 19.6 ± 0.52 µM (≈ 7.81 µg/mL)
- MFC/MIC [21]: <2
- MFC ([21]; Fusarium oxysporum, RCMB008002, read-out: MFC): 222.3 ± 1.65 µM (≈ 88.8 µg/mL)
- MIC ([21]; Fusarium oxysporum, RCMB008002, read-out: MIC): 139 ± 1.53 µM (≈ 55.5 µg/mL)
- MBC (E. faecalis ATCC 29212 [22]; read-out: MBC): 46.3 ± 0.74 µM (≈ 18.5 µg/mL)
- MIC (E. faecalis ATCC 29212 [22]; read-out: MIC): 23.1 ± 0.61 µM (≈ 9.25 µg/mL)
- MBC (E. coli ATCC 25922 [23]; read-out: MBC): 219.1 ± 2.14 µM (≈ 87.5 µg/mL)
- MIC (E. coli ATCC 25922 [23]; read-out: MIC): 156 ± 2.65 µM (≈ 62.5 µg/mL)

Compound: N#C/C(=C\c1ccc(O)cc1)C(=O)Nc1ccc(S(=O)(=O)NC(=N)N)cc1 [Compound 2c, N-(4-(N-Carbamimidoylsulfamoyl)phenyl)-2-cyano-3-(4-hydroxyphenyl) acrylamide]
- melting point: 256 to 258 °C
- Mean Diameter of the Inhibition Zone (B. subtilis ATCC 6633 [1]): 20 ± 0.38 mm
- Mean Diameter of the Inhibition Zone [2]: 14 ± 0.5 mm
- Mean Diameter of the Inhibition Zone (E. faecalis ATCC 29212 [3]): 17 ± 0.37 mm
- Mean Diameter of the Inhibition Zone (P. aeruginosa ATCC 27853 [4]): 20 ± 0.42 mm
- Mean Diameter of the Inhibition Zone (S. aureus ATCC 29213 [5]): 21 ± 0.85 mm
- Mean Diameter of the Inhibition Zone (E. coli ATCC 25922 [6]): 19 ± 0.75 mm
- Mean Diameter of the Inhibition Zone (S. typhi ATCC 6539): 17 ± 0.24 mm
- Mean Diameter of the Inhibition Zone (C. albicans (ATCC 10231) [7]): 16 ± 0.52 mm

Compound: COc1ccc(-c2c(C(=O)Nc3ccc(S(=O)(=O)NC(=N)N)cc3)c(N)n(C3CCCCC3)c(=O)c2C#N)cc1 [Compound 4, 2-Amino-N-(4-(N-carbamimidoylsulfamoyl)phenyl)-5-cyano-1-cyclohexyl-4-(4-methoxyphenyl)-6-oxo-1,6-dihydropyridine-3-carboxamide]
- melting point: 272 to 274 °C
- Mean Diameter of the Inhibition Zone (B. subtilis ATCC 6633 [1]): 23 ± 0.22 mm
- Mean Diameter of the Inhibition Zone [2]: no activity
- Mean Diameter of the Inhibition Zone (E. faecalis ATCC 29212 [3]): 25 ± 0.35 mm
- Mean Diameter of the Inhibition Zone (P. aeruginosa ATCC 27853 [4]): 23 ± 0.74 mm
- Mean Diameter of the Inhibition Zone (S. aureus ATCC 29213 [5]): 24 ± 0.33 mm
- Mean Diameter of the Inhibition Zone (S. typhi ATCC 6539): no activity
- Mean Diameter of the Inhibition Zone (C. albicans (ATCC 10231) [7]): 20 ± 0.50 mm

Compound: O=C1O[C@H]([C@@H](O)CO)C(O)=C1O [Vitamin C, vitamin C, reference compound]
- Spleen weight (spleen and thymus): 260 ± 0.028 mg
- Thymus index (spleen and thymus): 0.633 ± 0.06 mg/g
- Thymus weight (spleen and thymus): 17.2 ± 0.31 mg
- T cells CD4+ [24]: 76.74 ± 0.7%
- T cells CD8+ [24]: 19.62 ± 0.21%
